Measurements as given in patent publication US9549560B2, “Pesticidal compositions and related methods” (DOW AGROSCIENCES LLC, priority 2013, dated 2017).

Key:
[1] = system: Sweetpotato Whitefly-Crawler (Bemisia tabaci); experiment: Insecticidal test for Sweetpotato Whitefly-Crawler (WF) (BEMITA) in foliar spray assay on cotton plants; assay type: in vivo; conditions: 216 h, 200 ppm foliar spray, graded after 9 days, Abbott corrected % control, read-out: % Control (or Mortality) rating, WF
Protocol: Cotton plants (Gossypium hirsutum) grown in 3-inch pots, with 1 small (4-5 cm) true leaves, were used as test substrate. The plants were infested with 200-400 whitefly eggs 4-5 days prior to chemical application. Four pots with individual plants were used for each treatment. Test compounds (2 mg) were dissolved in 1 mL of acetone solvent, forming stock solutions of 2000 ppm test compound. The stock solutions were diluted 10× with 0.025% Tween 20 in H2O (diluents) to obtain the solution at 200 ppm test compound. A hand-held aspirator-type sprayer was used for spraying a solution to both sides of cotton leaves until runoff. Reference plants (solvent check) were sprayed with the diluent only containing 10% by volume of acetone solvent. Treated plants were held in a holding room for 9 days at approximately 25° C. and ambient relative humidity (RH) prior to grading. Evaluation was conducted by counting the number of live 3-4 nymph stage per plant under a microscope. Percent control was measured by using Abbott's correction formula (W. S. Abbott, “A Method of Computing the Effectiveness of an Insecticide,” J. Econ. Entomol. 18 (1925), pp. 265-267) as follows. Corrected % Control=100*(X−Y)/X
X=No. of live nymphs on solvent check plants and
Y=No. of live nymphs on treated plants.
(§1) Biological Data for Green Peach Aphid (GPA) (MYZUPE) and Sweetpotato Whitefly-crawler (WF) (BEMITA)” (See Table Section).

[2] = system: Green Peach Aphid (Myzus persicae); experiment: Bioassay for Green Peach Aphid (GPA) (MYZUPE), foliar spray on cabbage seedlings; assay type: in vivo; conditions: 72 h, 200 ppm foliar spray, graded after three days, Abbott corrected % control, read-out: % Control (or Mortality) rating, GPA
Protocol: Cabbage seedlings grown in 3-inch pots, with 2-3 small (3-5 cm) true leaves, were used as test substrate. The seedlings were infested with 20-50 GPA (wingless adult and nymph stages) one day prior to chemical application. Four pots with individual seedlings were used for each treatment. Test compounds (2 mg) were dissolved in 2 mL of acetone/methanol (1:1) solvent, forming stock solutions of 1000 ppm test compound. The stock solutions were diluted 5× with 0.025% Tween 20 in H2O to obtain the solution at 200 ppm test compound. A hand-held aspirator-type sprayer was used for spraying a solution to both sides of […] leaves until runoff. Reference plants (solvent check) were sprayed with the diluent only containing 20% by volume of acetone/methanol (1:1) solvent. Treated plants were held in a holding room for three days at approximately 25° C. and ambient relative humidity (RH) prior to grading. Evaluation was conducted by counting the number of live aphids per plant under a microscope. Percent control was measured by using Abbott's correction formula (W. S. Abbott, “A Method of Computing the Effectiveness of an Insecticide,” J. Econ. Entomol. 18 (1925), pp. 265-267) as follows. Corrected % Control=100*(X−Y)/X
X=No. of live aphids on solvent check plants and
Y=No. of live aphids on treated plants
as §1

SMILES: CCN(C(=O)CCSCC1CC1(F)F)c1cn(-c2ccc[n+]([O-])c2)nc1C (stereo not shown) [Compound P74, 3-(4-(3-(((2,2-Difluorocyclopropyl)methyl)thio)-N-ethylpropanamido)-3-methyl-1H-pyrazol-1-yl)pyridine 1-oxide]
- mortality at 200 ppm [1]: 80 to 100%
- mortality at 200 ppm [2]: 80 to 100%

SMILES: CCN(C(=O)CC[S+]([O-])CC1CC1(F)F)c1cn(-c2ccc[n+]([O-])c2)nc1C (stereo not shown) [Compound P75, 3-(4-(3-(((2,2-Difluorocyclopropyl)methyl)sulfinyl)-N-ethylpropan-amido)-3-methyl-1H-pyrazol-1-yl)pyridine 1-oxide]
- mortality at 200 ppm [1]: 80 to 100%
- mortality at 200 ppm [2]: 80 to 100%

SMILES: CCN(C(=O)CCSCCCC(F)(F)F)c1cn(-c2ccc[n+]([O-])c2)nc1C [Compound P80, 3-(4-(N-Ethyl-3-((4,4,4-trifluorobutyl)thio)propanamido)-3-methyl-1H-pyrazol-1-yl)pyridine 1-oxide]
- mortality at 200 ppm [1]: 80 to 100%
- mortality at 200 ppm [2]: 80 to 100%

SMILES: CCN(C(=O)CC[S+]([O-])CCCC(F)(F)F)c1cn(-c2ccc[n+]([O-])c2)nc1C (stereo not shown) [Compound P81, 3-(4-(N-Ethyl-3-((4,4,4-trilluorobutyl)sulfinyl)propanamido)-3-methyl-1H-pyrazol-1-yl)pyridine 1-oxide]
- mortality at 200 ppm [1]: 80 to 100%
- mortality at 200 ppm [2]: 80 to 100%

SMILES: CCN(C(=O)CCSCC1CC1(F)F)c1cn(-c2cc(F)c[n+]([O-])c2)nc1Cl (stereo not shown) [Compound P92, 3-(3-Chloro-4-(3-(((2,2-difluorocyclopropyl)methyl)thio)-N-ethylpropanamido)-1H-pyrazol-1-yl)-5-fluoropyridine 1-oxide]
- mortality at 200 ppm [1]: 80 to 100%
- mortality at 200 ppm [2]: 80 to 100%

SMILES: CCN(C(=O)CC[S+]([O-])CC1CC1(F)F)c1cn(-c2cc(F)c[n+]([O-])c2)nc1Cl (stereo not shown) [Compound P93, 3-(3-Chloro-4-(3-(((2,2-difluorocyclopropyl)methyl)sulfinyl)-N-ethylpropanamido)-1H-pyrazol-1-yl)-5-fluoropyridine 1-oxide]
- mortality at 200 ppm [1]: 80 to 100%
- mortality at 200 ppm [2]: 80 to 100%

SMILES: CCN(C(=O)CCSCCCC(F)(F)F)c1cn(-c2cc(F)c[n+]([O-])c2)nc1Cl [Compound P98, 3-(3-Chloro-4-(N-ethyl-3-((4,4,4-trilluorobutyl)thio)propanamido)-1H-pyrazol-1-yl)-5-fluoropyridine 1-oxide]
- mortality at 200 ppm [1]: 80 to 100%
- mortality at 200 ppm [2]: 0 to 80%

SMILES: CCN(C(=O)CC[S+]([O-])CCCC(F)(F)F)c1cn(-c2cc(F)c[n+]([O-])c2)nc1Cl (stereo not shown) [Compound P99, 3-(3-Chloro-4-(N-ethyl-3-((4,4,4-trilluorobutyl)sulfinyl)propanamido)-1H-pyrazol-1-yl)-5-fluoropyridine 1-oxide]
- mortality at 200 ppm [1]: 80 to 100%
- mortality at 200 ppm [2]: 80 to 100%

SMILES: CCN(C(=O)C(C)CSCCC(F)(F)F)c1cn(-c2ccc[n+]([O-])c2)nc1C (stereo not shown) [FA1, 3-(4-(N-Ethyl-2-methyl-3-((3,3,3-trilluoropropyl)thio)propanamido)-3-methyl-1H-pyrazol-1-yl)pyridine 1-oxide]
- mortality at 200 ppm [1]: 80 to 100%
- mortality at 200 ppm [2]: 80 to 100%

SMILES: CCN(C(=O)C(C)CSCCC(F)(F)F)c1cn(-c2cc(F)c[n+]([O-])c2)nc1Cl (stereo not shown) [FA2, 3-(3-Chloro-4-(N-ethyl-2-methyl-3-((3,3,3-trifluoropropyl)thio)propanamido)-1H-pyrazol-1-yl)-5-fluoropyridine 1-oxide]
- mortality at 200 ppm [1]: 80 to 100%
- mortality at 200 ppm [2]: 80 to 100%

SMILES: CCN(C(=O)C(C)CSCCC(F)(F)F)c1cn(-c2ccc[n+]([O-])c2)nc1Cl (stereo not shown) [FA3, 3-(3-Chloro-4-(N-ethyl-2-methyl-3-((3,3,3-trifluoropropyl)thio)propanamido)-1H-pyrazol-1-yl)pyridine 1-oxide]
- mortality at 200 ppm [1]: 80 to 100%
- mortality at 200 ppm [2]: 80 to 100%

SMILES: C#CCN(C(=O)C(C)CSCCC(F)(F)F)c1cn(-c2ccc[n+]([O-])c2)nc1Cl (stereo not shown) [FA4, 3-(3-Chloro-4-(2-methyl-N-(prop-2-yn-1-yl)-3-((3,3,3trifluoropropyl)thio)propanamido)-1H-pyrazol-1-yl)pyridine 1-oxide]
- mortality at 200 ppm [1]: 80 to 100%
- mortality at 200 ppm [2]: 80 to 100%

SMILES: CC(CSCCC(F)(F)F)C(=O)N(C)c1cn(-c2ccc[n+]([O-])c2)nc1Cl (stereo not shown) [FA5, 3-(3-Chloro-4-(N,2-dimethyl-3-((3,3,3-trifluoropropyl)thio)propanamido)-1H-pyrazol-1-yl)pyridine 1-oxide]
- mortality at 200 ppm [1]: 80 to 100%
- mortality at 200 ppm [2]: 80 to 100%

SMILES: CCN(C(=O)C(C)C[S+]([O-])CCC(F)(F)F)c1cn(-c2cc(F)c[n+]([O-])c2)nc1Cl (stereo not shown) [FA6, 3-(3-Chloro-4-(N-ethyl-2-methyl-3-((3,3,3-trifluoropropyl)sulfinyl)propanamido)-1H-pyrazol-1-yl)-5-fluoropyridine 1-oxide]
- mortality at 200 ppm [1]: 80 to 100%
- mortality at 200 ppm [2]: 80 to 100%

SMILES: C#CCN(C(=O)C(C)C[S+]([O-])CCC(F)(F)F)c1cn(-c2ccc[n+]([O-])c2)nc1Cl (stereo not shown) [FA7, 3-(3-Chloro-4-(2-methyl-N-(prop-2-yn-1-yl)-3-((3,3,3-trifluoropropyl)sulfinyl)propanamido)-1H-pyrazol-1-yl)pyridine 1-oxide]
- mortality at 200 ppm [1]: 80 to 100%
- mortality at 200 ppm [2]: 80 to 100%

SMILES: CC(C[S+]([O-])CCC(F)(F)F)C(=O)N(C)c1cn(-c2ccc[n+]([O-])c2)nc1Cl (stereo not shown) [FA8, 3-(3-Chloro-4-(N,2-dimethyl-3-((3,3,3-trifluoropropyl)sulfinyl)propanamido)-1H-pyrazol-1-yl)pyridine 1-oxide]
- mortality at 200 ppm [1]: 80 to 100%
- mortality at 200 ppm [2]: 80 to 100%

SMILES: CCN(C(=O)C(C)C[S+]([O-])CCC(F)(F)F)c1cn(-c2ccc[n+]([O-])c2)nc1Cl (stereo not shown) [FA9, 3-(3-Chloro-4-(N-ethyl-2-methyl-3-((3,3,3-trifluoropropyl)sulfinyl)propanamido)-1H-pyrazol-1-yl)pyridine 1-oxide]
- mortality at 200 ppm [1]: 80 to 100%
- mortality at 200 ppm [2]: 80 to 100%

SMILES: CCN(C(=O)C(C)C[S+]([O-])CCC(F)(F)F)c1cn(-c2ccc[n+]([O-])c2)nc1C (stereo not shown) [FA10, 3-(4-(N-Ethyl-2-methyl-3-((3,3,3-trifluoropropyl)sulfinyl)propanamido)-3-methyl-1H-pyrazol-1-yl)pyridine 1-oxide]
- mortality at 200 ppm [1]: 0 to 80%
- mortality at 200 ppm [2]: 80 to 100%

SMILES: CCN(C(=O)CS(C)(=O)=O)c1cn(-c2ccc[n+]([O-])c2)nc1Cl [FA11, 3-(3-chloro-4-(N-ethyl-2-(methylsulfonyl)acetamido)-1H-pyrazol-1-yl)pyridine 1-oxide]
- mortality at 200 ppm [1]: 0 to 80%
- mortality at 200 ppm [2]: 80 to 100%

SMILES: CC(C(=O)N(C)c1cn(-c2ccc[n+]([O-])c2)nc1Cl)S(C)(=O)=O (stereo not shown) [FA12, 3-(3-chloro-4-(N-methyl-2-(methylsulfonyl)propanamido)-1H-pyrazol-1-yl)pyridine 1-oxide]
- mortality at 200 ppm [1]: 80 to 100%
- mortality at 200 ppm [2]: 80 to 100%
